Data as given in patent US20090181910A1, “METHOD OF PREVENTION AND ALLEVIATION OF TOXICITY BY MODULATION OF IRF3” (priority 2006, published 2009).
Entries after “also recorded” stand apart in the source; their conditions may differ. Where a SMILES comes first, the peptide text is derived from it. The star is where a group is joined. Cbz = O=C(OCc1ccccc1)*

Experiments:
CRBPII = assay: RAW 264.7 Q-PCR: CRBPII; format: cell-based, murine; details: overexpression of Hes1 in RAW 264.7 cells; FIG. 10b
ABCA1 = assay: RAW 264.7 Q-PCR: ABCA1; format: cell-based, murine; details: overexpression of Hes1 in RAW 264.7 cells; FIG. 10b
[1] = in adults; cited from earlier work
Cyp1A2 = assay: Liver RNA Q-PCR, polyI:C/APAP-treated mice: Cyp1A2; details: APAP 350 mg/kg i.p., 6 h
Cyp3A11 [2] = assay: Liver RNA Q-PCR, polyI:C/APAP-treated mice: Cyp3A11; details: APAP 350 mg/kg i.p., 6 h
RXRα [3] = system: RXRα; set-up: species or system mice; details: mouse, in vivo
UGT1A6 [4] = format: cell-based, human; details: Huh7 cells with RXRα silenced by siRNA; ASA 20 μg/ml 24 hours
UGT1A6 [5] = system: UGT1A6; set-up: species or system mice; details: mouse
Oatp2 = system: Oatp2; set-up: species or system mice; details: mouse
Cyp3A11 [6] = details: mouse
[7] = mouse, in vivo
[8] = mouse, in vivo; remark: listed apart in the source
RXRα [9] = assay: BMM anti-RXRα Western blot; format: cell-based, Murine; details: for RXRα protein loss following polyI:C treatment: LG268 10 nM or GW3965 1 μM added to polyI:C 1 μg/ml, 24 hrs, FIG. 8d
[10] = mouse, in vivo; remark: listed apart in the source
[11] = Survival following APAP treatment; format: in vivo, mice; details: PCN 75 mg/kg i.p. 24 h before APAP 175 mg/kg; FIG. 4C
Method: FIG. 4: Percentage survival following APAP treatment with or without polyI:C. (A) Wildtype (n=8) fasted and were treated with 0.1% NaCl or polyI:C (100 μg) intravenous (i.v.) 24 hours prior to treatment with APAP (600 mg/kg) by intraperitoneal (i.p.) injection. (B) Wildtype and IRF3−/− (n=6-8) fasted and were treated with 0.1% NaCl or polyI:C (100 μg) intravenous (i.v.) 24 hours prior to treatment with APAP (600 mg/kg) by intraperitoneal (i.p.) injection. (C) Wildtype mice (n=6-8) fasted and were treated with 0.1% NaCl or polyI:C (100 μg) intravenous (i.v.) and PCN (75 mg/kg) intraperitoneal (i.p.) 24 hours prior to treatment with APAP (175 mg/kg) by intraperitoneal (i.p.) injection.
Age and sex matched 6-9 week old mice were used for all experiments. C57/B16 mice were obtained from Jackson Laboratory. IRF3^−/− mice were obtained from Dr. T. Taniguchi. For APAP hepatotoxicity analysis, mice fasted for […] and then administered Vehicle (0.1% NaCl) or APAP (175-600 mg/kg) by intraperitoneal injection (i.p.). For serum and histological studies, mice were sacrificed at 6-7 hours post injection and serum and liver samples were retrieved. For survival studies, mice were studied for up to 5 days. For polyI:C studies, mice were also treated with 0.1% NaCl or polyI:C (100 μg) intravenous (i.v.) 12-24 hours prior to APAP treatment. To study the effects of PCN on APAP treatment, mice were treated with PCN (75 mg/kg) or control (1% DMSO, corn oil) by intraperitoneal (i.p.) 12-24 hours prior to APAP treatment. To study the effects of ethanol (EtOH) on APAP treatment, mice were given 20% EtOH in water ad libidum for 5 days prior to APAP therapy. PolyI:C treatment for these experiments occurred at Day 3 and Day 5. Serum alanine aminotransferase (ALT) levels were determined using manufacturer's protocol (TECO Diagnostics). For H&E staining, liver samples were fixed in formalin for 48 hours. H&E stainings were done by UCLA Tissue Procurement Core Laboratory (TPCL).

[12] = addition of PCN
[13] = Serum ALT in APAP hepatotoxicity
[14] = H&E liver histology in APAP hepatotoxicity; details: pretreatment with PCN or ethanol, lower levels of APAP (175 mg/kg); FIG. 3B
RXRα [15] = format: cell-based, Murine

For `CC1=C(/C=C/C(C)=C\C=C\C(C)=C\C(=O)O)C(C)(C)CCC1` [9cRA, 9-cis retinoic acid], the “induction of CRBPII by 9cRA” value (CRBPII) was “prevents” and the “induction of ABCA1 by 9cRA” value (ABCA1) was “prevents”.

In the case of `CC(=O)Nc1ccc(O)cc1` [APAP, Acetaminophen], the “single acute toxic ingestion” value [1] is given as “approximately 7 g”, the “induction of Cyp1A2 by APAP” value (Cyp1A2) is given as “does not” and the “induction of Cyp3A11 by APAP” value (Cyp3A11 [2]) is given as “does not”.

In the case of `CC(=O)Oc1ccccc1C(=O)O` [ASA, acetylsalicylic acid], the “RXRα protein in liver” value (RXRα [3]) is reported as “significant loss of RXRα protein”, the “UGT1A6 induction by ASA” value (UGT1A6 [4]) is reported as “impaired” and the “UGT1A6 mRNA in vivo” value (UGT1A6 [5]) is reported as “potently increased”. For the same compound, the “Oatp2 mRNA in vivo” value (Oatp2) was “not other PXR/RXR genes such as Oatp2”, the “CYP3A11 mRNA in vivo” value (Cyp3A11 [6]) was “potently increased” and the “hepatotoxicity (liver necrosis or fatty degeneration)” value [7] was “caused severe hepatotoxicity as evidenced by liver necrosis or fatty degeneration”. The “hepatotoxicity from polyI:C plus ASA in knockout mice” value [7] was “did not occur in IRF3^−/− mice, but did occur in IFNAR^−/− mice”, the “hepatotoxicity, agent alone” value [7] was “did not cause significant hepatotoxicity” and the blood glucose levels [8] was “significantly decreased”. For the same compound, the “serum ALT” value [8] was “increased”, the serum ammonia [8] was “increased” and the total bilirubin levels [8] was “increased”.

With `O=C(O)Cc1cccc(OCCCN(Cc2cccc(C(F)(F)F)c2Cl)CC(c2ccccc2)c2ccccc2)c1` [GW3965] the “RXRα protein loss following polyI:C treatment” value (RXRα [9]) was “more obvious”.

With `C[C@H](CCC(=O)O)[C@H]1CC[C@H]2[C@@H]3CC[C@@H]4C[C@H](O)CC[C@]4(C)[C@H]3CC[C@]12C` [LCA, Lithocholic acid] the “serum alanine aminotransferase (ALT) levels” value [10] was “significant elevation of serum alanine aminotransferase (ALT) levels”.

In the case of `Cc1cc2c(cc1C1(c3ccc(C(=O)O)cn3)CC1)C(C)(C)CCC2(C)C` [LG268], the “RXRα protein loss following polyI:C treatment” value (RXRα [9]) is reported as “more obvious”.

For `CC(C)C[C@@H](C=O)NC(=O)[C@H](CC(C)C)NC(=O)[C@H](CC(C)C)NC(=O)OCc1ccccc1` [MG132] (Cbz-Leu-Leu-Leu-aldehyde), the “RXRα protein loss after 9cRA and polyI:C co-stimulation” value (RXRα [9]; MG132 10 μM, BMMs, FIG. 8f) was “prevented loss of RXRα protein”.

With `CC(=O)[C@H]1[C@H](C#N)C[C@H]2[C@@H]3CC=C4C[C@@H](O)CC[C@]4(C)[C@H]3CC[C@@]21C` [PCN, Pregnenolone 16alpha-carbonitrile] the “sensitivity to APAP (survival)” value [11] was “increases sensitivity to lower levels of APAP”, the “RXRα protein expression in liver” value (RXRα [3]) was “further loss of RXRα protein expression; also recorded: potent loss of RXRα protein” and the “UGT1A6 mRNA in vivo” value (UGT1A6 [5]) was “potently increased”. The “Oatp2 mRNA in vivo” value (Oatp2) was “not other PXR/RXR genes such as Oatp2”, the “CYP3A11 mRNA in vivo” value (Cyp3A11 [6]) was “potently increased” and the “LCA-induced serum ALT with PCN co-treatment” value [10] was “reduced”. For the same compound, the “protection from VSV plus LCA-induced hepatotoxicity” value [12] was “could not be blocked”, the “hepatotoxicity as measured by serum ALT” value ([13]; PCN 75 mg/kg i.p. 24 h before APAP 175 mg/kg, FIG. 2B) was “caused less toxic levels of APAP to result in severe hepatotoxicity” and the “cell necrosis (H&E)” value [14] was “results in severe necrosis similar to higher doses of APAP”.

For `CC(/C=C/C(=O)NO)=C\[C@@H](C)C(=O)c1ccc(N(C)C)cc1` [TSA, trichostatin A], the “effect on polyI:C repression of RXRα mRNA” value (RXRα [15]) was “prevented polyI:C repression of RXRα, and allowed polyI:C to induce RXRα”.

With `CCO` [ethanol, Ethanol] the “sensitivity to APAP (serum ALT)” value ([13]; 20% EtOH ad libidum 5 days, APAP 175 mg/kg, FIG. 2C) was “results in similar sensitivity to APAP as PCN treatment” and the “cell necrosis (H&E)” value [14] was “results in severe necrosis similar to higher doses of APAP”.
